According to US20220395500A1, “SMALL MOLECULE ACTIVATORS OF INTERFERON REGULATORY FACTOR 3 AND METHODS OF USE THEREOF” (Neuralexo, Inc., priority 2020, published 2022):

Key:
[1] = system: ISRE-firefly luciferase reporter in RAW264.7 cells; experiment: RAW264.7 ISRE-firefly luciferase reporter assay; assay type: cell-based, mouse
Excerpt: Data is depicted as fold increase ISRE activity vs matched vehicle, plotted against log[agonist] (M).
To characterize a small directed subset of molecules known to activate IRF3, mouse macrophage cells (RAW264.7) containing an ISRE-firefly luciferase reporter with a constitutively active renilla luciferase internal control for normalization (Promega) was utilized. IRF3 can activate ISRE through direct binding and via feed-forward mechanisms through potent induction of IFNβ. […] Specifically, RAW264.7 cells containing ISRE firefly luciferase reporter were treated with indicated compounds for 3 hours and luciferase activity was determined.

Neuro2a cells = experiment: Gene induction in Neuro2a cells (qtPCR); assay type: cell-based, mouse; details: 10 ug/ml, 3 hours, compared to 5′pppRNA
Procedure: RNA was collected from cell pellets and qtPCR was performed with indicated primers. Data is depicted as mRNA fold-change versus vehicle. Values are normalized to actin and are presented as fold change over vehicle control.
(§1) Total RNA isolated from brain cortex, or RNA from cell culture, was reverse transcribed using an Omniscript Reverse Transcription kit (Qiagen). Quantitative PCR was performed using the TaqMan Gene Expression Assays (Applied Biosystems) on an ABI-prism 7700. Results were normalized to β-actin expression and analyzed relative to appropriate controls. The relative quantification of the gene of interest was determined using the comparative CT method (2^−ΔΔCt)
Since inflammatory pathways mediated by NF-κB are known to have negative effects on stroke outcome, the induction of key detrimental genes including TNF and IL-6 in response to drug treatment was evaluated. […] RNA was collected from cell pellets and qtPCR was performed with indicated primers. Values are normalized to actin and are presented as fold change over vehicle control.

[2] = system: IRF3 related genes in brain cortical tissue; experiment: DMXAA-induced IRF-related gene expression in mouse brain cortex; assay type: in vivo
Procedure: FIG. 7A is a bar graph depicting DMXAA-induced induction of IRF-related gene expression in mice. […] RNA was extracted and qtPCR was performed with indicated primers. Data is depicted as mRNA fold-change versus vehicle. Values depicted are group means+/−SEM; n=4 per group.
as §1
Values depicted are group means+/−SEM; n=4 per group.

cerebral ischemic injury = experiment: Middle cerebral artery occlusion (MCAO), infarct volume; assay type: in vivo, mouse; details: 60 minute MCAO, 24 hours
Procedure: Mice were anesthetized and subjected to middle cerebral artery occlusion (MCAO) using the monofilament suture method. Briefly, a silicone-coated 7-0 monofilament nylon surgical suture was threaded through the external carotid artery to the internal carotid artery to block the middle cerebral artery; […] The suture was then removed to restore blood flow. Mice undergoing ischemic preconditioning followed by injurious ischemia were rested in their home cage for 72 h before receiving the second MCAO (45 min). Cerebral blood flow (CBF) was monitored throughout surgery by laser Doppler flowmetry. The mean CBF value between groups was consistent for each experiment. […] Body temperature was monitored and maintained at 37° C. with a thermostat-controlled heating pad.
Mouse brain was sliced into 7×1 mm coronal sections before 2,3,5-triphenyltetrazolium chloride TTC staining, and the volume of infarct was determined by summing of the area of infarct from individual slices. The infarct size for each image was determined using NIH image analyses. […]
IRFs are master regulators of innate immune receptors, constituting a family of DNA-binding proteins expressed in a variety of tissues. […] Infarct volume was measured 24 hours after surgery. […] Specifically, gene transcription was measured in the brain 24 hours post MCAO in LPS preconditioned wildtype, IRF3 deficient, and IRF7 deficient mice using quantitative PCR. […]

THP1-Dual cells = experiment: THP1-Dual cytotoxicity (Cell Titer Glo, ATP); assay type: cell-based, human; details: Human Reporter Cell Line THP1; read-out: Thp1 cytotox CC50
How it was run: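 Human THP1-Dual cells were treated across an 8-point dose-response range. Cytotoxicity was measured in-plate by CellTiter-Glo luminescence, which quantifies ATP as a marker of metabolically active cells, and CC50 was taken as the 50% cytotoxic concentration.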

[3] = 10 mg/kg IP, brain tissue at 3 hours

Structure (SMILES)	EC50 ([1]; Mus musculus, RAW264.7, expanded dose-response study, read-out: EC50 for activating mouse ISRE)	ISRE activation ([1]; RAW264.7, 3 hours post-treatment, 96-well)	induction of IRF-regulated genes RSAD2 and IFIT1 (Neuro2a cells)	IRF3 related gene expression in brain [2, 3]	induction of pro-inflammatory genes TNF in brain [2, 3]	IRF-mediated gene induction in the brain ([2]; 5-fold lower dose (2 mg/kg IP), 3 hours, compared to vehicle)	protection against ischemic injury in mice lacking IRF3 (cerebral ischemic injury; IRF3 KO mice, 250 μg IP)	reduction in ischemic injury (infarct volume) compared to controls (cerebral ischemic injury; wild-type mice, 250 μg IP at onset of reperfusion)	CC50 (THP1-Dual cells)
Cc1ccc2c(=O)c3cccc(CC(=O)O)c3oc2c1C [DMXAA, 5,6-dimethylxanthenone-4-acetic acid]	~16 µM	most potent activators	most robust induction	significant increase	minimal induction	minimal increase	not protected	2 fold	–
COc1ccc(C(=O)Nc2cc(-c3nc4ccccc4s3)ccc2C)cc1[N+](=O)[O-] [ND-38]	–	–	–	–	–	–	–	–	44.9 µM
